According to patent publication EP3733658B1, “PRENYLATED BENZOPYRANES AS PPAR AGONISTS” (Universitat de València, priority 2017, dated 2019):

Assays:
[1] = test system: mononuclear cell adhesion induced by TNFα; experiment: Mononuclear cell adhesion to TNFα-stimulated HUVEC transfected with control or RXRα, PPARα, PPARγ specific siRNA; type: cell-based, human; details: 20 h
[2] = test system: human umbilical vein endothelial cells (HUVEC); experiment: MTT colorimetric cell viability assay, HUVEC; type: cell-based; details: 30 µM, 24 h
Description: To evaluate potential adverse effects (cytotoxicity) of the compounds of the invention, the compounds 1 and 2 for use according to the present invention, compound 8 of the invention, and the reference compounds were evaluated at concentrations of 30 and 100 µM in human neutrophils (Fig. 1A) and primary cultures of human umbilical vein endothelial cells (HUVEC) (Fig. 1B) using two different techniques: MTT colorimetry assay and flow cytometry analysis for cellular apoptosis and survival. In addition, the synthetic compound 9 of the invention was evaluated at 10, 30 and 100 µM (Fig. 2).
MTT assay. The viability of neutrophils and HUVEC was determined by the MTT colorimetric assay MTT (3(4,5-dimethylthiazol-2-yl)-2,5-diphenyltetrazoyl bromide).
Human umbilical vein endothelial cells (HUVEC) were isolated with the collagenase treatment and maintained in a human specific endothelial base medium (EBM-2) supplemented with endothelial growth medium (EGM-2) and 10% FCS. Cells of the first passage were cultured until their confluence in 24-well plates. Before starting each experiment, the cells were incubated for 24 h in a medium containing 1% FBS.
100 µL of neutrophils and HUVEC (2 × 10^5 cells/mL) suspension in supplemented RPMI medium were added to each well of a 96-well plate. The cells were incubated in absence and/or presence of the compounds at 37°C for24h. An MTT solution was prepared (2 mg/mL in PBS). 100 µL of the MTT solution were added to each well and incubated at 37°C for an additional 3 h. The supernatants were discarded and 200 µL of DMSO were added to each well to dissolve the precipitated formazan. The optical densities at two wavelengths (560 and 630 nm) were measured in a spectrophotometer (Infinite M200, Tecan, Mannedorf, Switzerland).

human neutrophils = experiment: Annexin V / propidium iodide flow cytometry of apoptosis and survival, neutrophils; type: cell-based; details: 24 h, compared to the vehicle
Description: (§1) In addition, the apoptosis and survival rate for human neutrophils and HUVEC was determined by double staining with annexin V and propidium iodide (PI) by flow cytometry.
(§2) Cytofluorometric analysis of apoptosis and survival. The kit FITC Annexin V Apoptosis Detection kit (BD Bioscience, San Jose, CA) was used. The staining protocol and all the reagents were supplied with the commercial kit. HUVEC were separated from the culture flasks by accutase (StemPro® Accutase® Cell dissociation reagent, Thermofischer Scientific Waltham, MA). Both cell types were incubated at 37°C for 24h in the presence or absence of the test compounds. Confluent HUVEC and freshly isolated neutrophils were washed, resuspended in binding buffer 1x (1 × 10^6 cells/mL) and stained with annexin V conjugated with FITC and propidium iodide (PI) as described in the manufacturer's instructions. The cells were analyzed in a BD FACSVerse Flow Cytometer (BD Biosciences, San Jose, CA) and differentiated as early apoptosis cells (annexin V^+ and PI^-), late apoptosis cells and/or necrotic cells (annexin V^+ and PI^+), and live cells (annexin V^- and PI^-).

HUVEC = experiment: Annexin V / propidium iodide flow cytometry of apoptosis and survival, HUVEC; type: cell-based, human; details: tested concentrations including 100 µM, compared with the vehicle
Description: as §1, §2

ob/ob mice = experiment: Treatment of ob/ob mice: blood glucose; type: in vivo
Description: This study used male ob/ob mice (C57BU6J) (Charles River laboratories, Chatillon-sur-Chalaronne, France).
The mice were housed in individual cages in a room with controlled temperature, humidity and light. […] The mice were allowed to acclimate for ten days prior to the study.
The control ob/ob mice were just administered with vehicle (physiological saline solution with HEC 1%). […] The compounds were prepared freshly each day in a 1% suspension of HEC for oral administration. Randomization was performed based on the glycaemia values on day 0. For the duration of the experiment the amount of food ingested and the body weight were determined daily for each mouse. Every day between 9:00 and 11:00 a.m. (prior to treatment) blood glucose levels were measured using (Contour next USB Blood glucose meter, BAYER, Basel, Switzerland).

[3] = test system: white adipose tissue (WAT); experiment: Treatment of ob/ob mice: white adipose tissue weight, histology and F4/80 immunohistochemistry; type: in vivo; details: oral, 4 days
Excerpt: (§3) […]. […] […].
The samples of epididymal white adipose tissue (WAT) and liver were fixed in 4% paraformaldehyde, embedded in paraffin, sectioned with a microtome (Leica RM2245, Leica Biosystems, Wetzlar, Germany) and mounted in microscope slides Superfrost® plus (Thermo Fisher Scientific, Waltham, MA). Cross sections of WAT and liver were obtained. At least 10 slides were examined containing ≈ 4 cross sections of tissue (5 µm thickness) of each animal. Hematoxilin and eosin (H&E) staining was performed of the WAT and liver. Inflammatory infiltration in WAT was measured as previously described (Toyoda et al., 2008). After inactivation of the peroxidase (3% H2O2) and blocking with goat serum (Abcam, Cambridge, UK), cross sections of WAT were incubated overnight (4°C) with the following primary (mAb) monoclonal antibody: a rabbit anti-mouse F4/80 mAb (dilution 1:100, Abcam, Cambridge, UK). A specific marking was detected with a secondary goat HRP-conjugated anti-rabbit antibody (dilution 1:500, Dako, Copenhagen, Denmark). To confirm the specificity of the antibodies, control antibodies with the same isotope (Abcam, Cambridge, UK) or secondary antibody were used only as negative controls. […] Five fields of each WAT tissue section were photographed (Axio Observer A1, Carl Zeiss microscope, Thornwood, NY) digitalized and analyzed (Imaged software 1.48V, Bethesda, […]). Quantification was performed double blind with codes.

[4] = Treatment of ob/ob mice: plasma metabolites (cholesterol, HDL-c, triglycerides, free fatty acids, ALT, AST); type: in vivo; design: blood levels of free fatty acids: unit not given here; details: oral, 4 days; for triglyceride levels in plasma: control 137 mg/dL
Description: as §3
Free fatty acids (FFA) in plasma, and the enzymes aspartate aminotransferase (AST) and alanine aminotransferase (ALT) were determined with a colorimetric assay kit (Sigma-Aldrich, Madrid, Spain). In addition the plasma lipid levels for total cholesterol and triglycerides (TG) were measured by enzymatic methods (WAKO, Cape Charles, VA). The concentration of HDLcholesterol (HDL-c) was also determined with the same method used to measure total cholesterol, after precipitating the apolipoprotein-B (apoB) with dextran sulphate/MgCl2 (Sigma-Aldrich, Madrid, Spain) as previously described (Zieske et al., 2005).

Structure (SMILES): C/C(=C\CCC1(C)CCc2cc(O)cc(C)c2O1)CC/C=C(\C)C(=O)O (stereo not shown) [Polycerasoidol, 1, polycerasoidol]
- inhibitory response on mononuclear cell adhesion after PPARα silencing ([1]; PPARα siRNA HUVEC, polycerasoidol 10 µM, rosiglitazone 1 µM): not affected
- inhibitory response on mononuclear cell adhesion in HUVEC deficient in PPARγ ([1]; PPARγ siRNA HUVEC, 10 µM): annulled
- inhibitory effect on mononuclear cell adhesion after RXRα silencing ([1]; RXRα specific siRNA HUVEC, 10 µM): completely suppressed
- TNFα-induced adhesion of mononuclear cells ([1]; control siRNA transfected HUVEC, polycerasoidol 10 µM, rosiglitazone 1 µM): inhibited

Structure (SMILES): CCOC(=O)CCC(C)=CCCC1(C)CCc2cc(OCc3ccc(F)cc3)ccc2O1 (stereo not shown) [Compound 9]
- cytotoxicity (MTT), with respect to the vehicle [2]: 12%
- effect on neutrophil survival (human neutrophils; 30 µM): 1.07%
- effect on cell survival (human neutrophils; 100 µM): 1.55%
- toxicity (HUVEC): absence of toxicity
- glucose blood level, day 0 (before treatment) (ob/ob mice; group given 30 mg/Kg/d): 261 mg/dL
- glucose blood level after 4 days (ob/ob mice; oral, 30 mg/Kg/d): 194 mg/dL
- decrease in glucose blood levels compared to day 0 (ob/ob mice; oral, 30 mg/Kg/d, after 4 days): 20%
- number of macrophages (F4/80) in WAT ([3]; 30 mg/Kg/d): significantly reduce
- weight of epididymal white adipose tissue (WAT) compared to the control group [3]: did not significantly increase
- mean area of the adipocytes in WAT ([3]; compound 9 10 and 30 mg/Kg/d (dose-dependent), rosiglitazone 10 mg/Kg/d): significant decrease
- triglyceride levels in plasma ([4]; 10 mg/Kg/d): 122 mg/dL
- triglyceride levels in plasma ([4]; 30 mg/Kg/d): 101 mg/dL
- blood levels of free fatty acids ([4]; 30 mg/Kg/d, control 0.67): 0.25
- triglyceride levels in plasma (in words) [4]: decrease of triglyceride levels in plasma, although not in a significant manner
- decrease of AST level compared to the ob/ob control group ([4]; plasma, 30 mg/Kg/d): 28%
- increase of total cholesterol levels with respect to the control group ([4]; plasma, 30 mg/Kg/d): 50%
- ALT level ([4]; plasma): reduced
- HDL-c with respect to the control group ([4]; plasma, compound 9 10 and 30 mg/Kg/d, WY-14643 30 mg/Kg/d): significantly increased
